The source of these data is patent US20080233187A1, “Method of Production of Fine-Crystalline Mixture Containing Non-Steroid Anti-Inflammatory Drug, Fine-Crystalline Mixture Obtainable by this Method and Solid Pharmaceutical Composition Containing this Mixture” (priority 2005, published 2008).

The conditions of data set [1]: racemic mixture administered to a human; cited from earlier work.
Data set [2] is described as follows: most commonly represented sizes of crystals (photographs of the crystals). The format is physicochemical. The text has this:
The auxiliary substance in the fine-crystalline mixtures was Avicel®.

Data set [3] in a line: release rate of the active ingredient from capsules and tablets (European Pharmacopoeia, chapter 2.9.3.). Particulars: tablets of recipe C2 composition with fine-crystalline mixture of the drug and microcrystalline cellulose, direct pressing (FIG. 5 and 6). The class given is physicochemical. On the procedure:
The release rate of the active ingredient from the capsules prepared by the process described above, and for comparison also from the tablets, was tested by the method of the European Pharmacopoeia for testing solid pharmaceutical forms (chapter 2.9.3.). The medium used was phosphate buffer having pH 7.2.

As to `CC(C)Cc1ccc([C@@H](C)C(=O)O)cc1` [R(−)-ibuprofen, R(−)-2-(4-isobutylphenyl)-propionic acid], the “conversion of R(−)-enantiomer to the S(+) form” value in data set [1] is 50 to 60%.
For `CC(C)Cc1ccc([C@H](C)C(=O)O)cc1` [coarse-crystalline S(+)-ibuprofen, S(+)-2-(4-isobutylphenyl)-propionic acid], the “lengthwise size of the stick-form crystals” value in data set [2] (starting material (photograph FIG. 7)) is on record as “about 200 micrometers”. In data set [2] (starting material, no solvent), this compound gave a length of crystals of 250 μm and a width of crystals of 65 μm.
For `CS(=O)(=O)Nc1ccc([N+](=O)[O-])cc1Oc1ccccc1` [nimesulide, N-(4-nitro-2-phenoxyphenyl)-methanesulphonamide], in data set [3], the “release of the active ingredient from the tablet” value is “very fast release”.
On the same count and under the same terms, for `CN1C(C(=O)Nc2ccccn2)=C(O)c2ccccc2S1(=O)=O` [piroxicam, 4-hydroxy-2-methyl-3-[(2-pyridyl)aminocarbonyl]-2H-1,2-benzothiazin-1,1-dioxide] the value was “very fast release”.
